According to ChEMBL document CHEMBL3616477, “In vivo evaluation of isolated triterpenes and semi-synthetic derivatives as antimalarial agents” (2015):

Key:
[1] = system: Plasmodium berghei; assay: Antimalarial activity against Plasmodium berghei NK65 infected in BALB/c mouse assessed as inhibition of parasitemia at 50 mg/kg, po qd for 4 days measured on 5th day after parasite inoculation by Giemsa staining based microscopy relative to control; format: functional; conditions: 96 h
[2] = system: Plasmodium berghei; assay: Antimalarial activity against Plasmodium berghei NK65 infected in BALB/c mouse assessed as inhibition of parasitemia at 25 mg/kg, po qd for 4 days measured on 7th day after parasite inoculation by Giemsa staining based microscopy relative to control; format: functional; conditions: 96 h
[3] = system: Plasmodium berghei; assay: Antimalarial activity against Plasmodium berghei NK65 infected in BALB/c mouse assessed as inhibition of parasitemia at 25 mg/kg, sc qd for 4 days measured on 5th day after parasite inoculation by Giemsa staining based microscopy relative to control; format: functional; conditions: 96 h
[4] = system: Plasmodium berghei; assay: Antimalarial activity against Plasmodium berghei NK65 infected in BALB/c mouse assessed as mean survival time at 25 mg/kg, po qd for 4 days (reference value: 22 +/- 3 days); format: functional
[5] = system: Plasmodium berghei; assay: Antimalarial activity against Plasmodium berghei NK65 infected in BALB/c mouse assessed as mean survival time at 50 mg/kg, po qd for 4 days (reference value: 22 +/- 3 days); format: functional
[6] = system: Plasmodium berghei; assay: Antimalarial activity against Plasmodium berghei NK65 infected in BALB/c mouse assessed as inhibition of parasitemia at 25 mg/kg, po qd for 4 days measured on 5th day after parasite inoculation by Giemsa staining based microscopy relative to control; format: functional; conditions: 96 h
[7] = system: Plasmodium berghei; assay: Antimalarial activity against Plasmodium berghei NK65 infected in BALB/c mouse assessed as inhibition of parasitemia at 50 mg/kg, sc qd for 4 days measured on 7th day after parasite inoculation by Giemsa staining based microscopy relative to control; format: functional; conditions: 96 h
[8] = system: Plasmodium berghei; assay: Antimalarial activity against Plasmodium berghei NK65 infected in BALB/c mouse assessed as inhibition of parasitemia at 25 mg/kg, sc qd for 4 days measured on 7th day after parasite inoculation by Giemsa staining based microscopy relative to control; format: functional; conditions: 96 h
[9] = system: Plasmodium berghei; assay: Antimalarial activity against Plasmodium berghei NK65 infected in BALB/c mouse assessed as inhibition of parasitemia at 50 mg/kg, sc qd for 4 days measured on 5th day after parasite inoculation by Giemsa staining based microscopy relative to control; format: functional; conditions: 96 h
[10] = system: Plasmodium berghei; assay: Antimalarial activity against Plasmodium berghei NK65 infected in BALB/c mouse assessed as mean survival time at 50 mg/kg, sc qd for 4 days (reference value: 23 +/- 4 days); format: functional
[11] = system: Plasmodium berghei; assay: Antimalarial activity against Plasmodium berghei NK65 infected in BALB/c mouse assessed as inhibition of parasitemia at 50 mg/kg, po qd for 4 days measured on 7th day after parasite inoculation by Giemsa staining based microscopy relative to control; format: functional; conditions: 96 h
[12] = system: Plasmodium berghei; assay: Antimalarial activity against Plasmodium berghei NK65 infected in BALB/c mouse assessed as mean survival time at 25 mg/kg, sc qd for 4 days (reference value: 23 +/- 4 days); format: functional
[13] = system: Plasmodium berghei; assay: Antimalarial activity against Plasmodium berghei NK65 infected in BALB/c mouse assessed as mean survival time at 5 mg/kg, sc qd for 4 days (reference value: 23 +/- 4 days); format: functional; conditions: 96 h
[14] = system: Plasmodium berghei; assay: Antimalarial activity against Plasmodium berghei NK65 infected in BALB/c mouse assessed as inhibition of parasitemia at 5 mg/kg, po qd for 4 days measured on 7th day after parasite inoculation by Giemsa staining based microscopy relative to control; format: functional; conditions: 96 h
[15] = system: Plasmodium berghei; assay: animal or person; conditions: NK65, in Mus musculus, po, 96 h, read-out: INH
Description: Antimalarial activity against Plasmodium berghei NK65 infected in BALB/c mouse assessed as inhibition of parasitemia at 5 mg/kg, po qd for 4 days measured on 5th day after parasite inoculation by Giemsa staining based microscopy relative to control

[16] = system: Plasmodium berghei; assay: Antimalarial activity against Plasmodium berghei NK65 infected in BALB/c mouse assessed as inhibition of parasitemia at 5 mg/kg, sc qd for 4 days measured on 5th day after parasite inoculation by Giemsa staining based microscopy relative to control; format: functional; conditions: 96 h
[17] = system: Plasmodium berghei; assay: Antimalarial activity against Plasmodium berghei NK65 infected in BALB/c mouse assessed as inhibition of parasitemia at 5 mg/kg, sc qd for 4 days measured on 7th day after parasite inoculation by Giemsa staining based microscopy relative to control; format: functional; conditions: 96 h
[18] = system: Plasmodium berghei; assay: Antimalarial activity against Plasmodium berghei NK65 infected in BALB/c mouse assessed as mean survival time at 5 mg/kg, po qd for 4 days (reference value: 22 +/- 3 days); format: functional

Row | Structure (SMILES) | inhibition in vivo at 50 mg/kg [1] | inhibition in vivo at 25 mg/kg [2] | inhibition in vivo at 25 mg/kg [3] | MST [4] | MST [5] | inhibition in vivo at 25 mg/kg [6] | inhibition in vivo at 50 mg/kg [7] | inhibition in vivo at 25 mg/kg [8] | inhibition in vivo at 50 mg/kg [9] | MST [10] | inhibition in vivo at 50 mg/kg [11] | MST [12] | mean survival time at 5 mg/kg [13] | inhibition in vivo at 5 mg/kg [14] | inhibition in vivo at 5 mg/kg [15] | inhibition in vivo at 5 mg/kg [16] | inhibition in vivo at 5 mg/kg [17] | mean survival time at 5 mg/kg [18]
1 | CO[C@H]1C=C2[C@@H](CC[C@H](OC(C)=O)C2(C)C)[C@]2(C)CC[C@]3(C)[C@@H]([C@H](C)C[C@H](C=C(C)C)OC(C)=O)CC[C@@]3(C)[C@H]12 [KARAVOATE B] | 58.1% | 13.2% | 39.2% | 21 days | 23 days | 41.8% | 28.4% | 10.1% | 55.2% | 24 days | 25.6% | 20 days | – | – | – | – | – | –
2 | CC(C)=C[C@H](O)C[C@@H](C)[C@H]1CC[C@@]2(C)[C@@H]3[C@@H](O[C@@H]4O[C@H](CO)[C@@H](O)[C@@H](O)[C@H]4O)C=C4[C@@H](CC[C@H](O)C4(C)C)[C@]3(C)CC[C@]12C [BALSAMINOSIDE B] | 36.2% | 0% | 12.5% | 21 days | 23 days | 23.9% | 5.5% | 0% | 37.1% | 21 days | 8.6% | 20 days | – | – | – | – | – | –
3 | CO[C@H]1C=C2[C@@H](CC[C@H](O)C2(C)C)[C@]2(C)CC[C@]3(C)[C@@H]([C@H](C)C[C@@H](O)C=C(C)C)CC[C@@]3(C)[C@H]12 [KARAVELAGENIN C] | 33.1% | 0% | 21.3% | 21 days | 22 days | 22.7% | 1% | 0% | 18.6% | 22 days | 3.4% | 23 days | – | – | – | – | – | –
4 | CCC(=O)O[C@H]1CC[C@@H]2C(=C[C@H](OC)[C@@H]3[C@@]2(C)CC[C@]2(C)[C@@H]([C@H](C)C[C@H](C=C(C)C)OC(=O)CC)CC[C@@]32C)C1(C)C [KARAVOATE D] | 45.5% | 0% | 11.9% | 23 days | 24 days | 12.3% | 10.5% | 0% | 42.5% | 24 days | 11.5% | 22 days | – | – | – | – | – | –
5 | CCN(CC)CCCC(C)Nc1ccnc2cc(Cl)ccc12 (centres undefined) [CHLOROQUINE] | – | – | – | – | – | – | – | – | – | – | – | – | > 40 days | 98% | 100% | 99% | 99% | > 40 days
